One series deals with cells. Briefly: Cell death during cell wounding by washed MST, platform rocker exposure system. In kind it is cell-based. The conditions noted are these: for cell death associated with MST-extract exposure during cell wounding: MST-extract containing 9.5 mM chelator, with washed MST, 30 minutes. On the procedure:
Cell death was measured immediately following treatment.
We then treated cells for 30 minutes with MST-extract/chelator preparations in the presence of washed MST using the platform exposure system and assessed cell death immediately following treatment.

For series [1] the following is noted: for chelation of free calcium of MST-extract: 9.5 mM chelator in MST-extract. On the procedure:
The term “free” with regard to (1) calcium and (2) iron refers to (1) Ca^2+ and (2) Fe^2+ and/or Fe^3+, respectively. Determination of an amount of free iron and/or free calcium in smokeless tobacco can be made by first incubating the smokeless tobacco with any chelators that may be used for an appropriate amount of time (for example, one day), then separating extract by centrifugation with glass beads. […] Then, fifteen grams of Glass Beads (Kimble; 6 MM catalog # 13500-6) can be added to the Vectrospin™ tube containing the tobacco. The tube is preferably centrifuged at 2200 g for 20 minutes to recover tobacco extract. Free calcium and iron can be measured using the respective QuantiChrom™ assay kits (BioAssay Systems, Hayward, CA) according to the manufacturer’s instructions.

The test system of another series is Klebsiella pneumoniae. The conditions noted are these: cited from earlier work.
Series [2] has as its system HOK-16B cells. Briefly: Morphologic assessment of necrotic/apoptotic cell death (Hema 3 staining). In kind it is cell-based, human. The note with it: for protection from STE-induced cell death: TROLOX 20 µmol/L, L-ascorbic acid 50 µmol/L or deferoxamine 50 µmol/L, 30 min prior to STE, FIG. 1D. On the procedure: (§1) Extracts of smokeless tobacco were prepared in cell growth medium as follows. One gram of reference smokeless tobacco was mixed with 10 ml of cell growth medium and placed on a shaker at 300 rpm and allowed to mix for 2 hours at 37° C. It was then centrifuged at 125 g for 10 minites at 4° C. The extracted supernatant was collected and centrifuged at 14,000 g for 1 hour at 4° C. The supernatant was filtered using a 0.22 µm filter, divided into aliquots, and immediately stored at -80° C. The extracted supernatant yielded a 100 mg/ml smokeless tobacco extract (STE) solution, which was serially diluted to obtain the doses of STE (1-100 mg/ml) used.
The primary HOK cells, isolated from human oral mucosa, were plated on poly-L-lysine coated plates at a density of 5 × 10^5 cells/well in a 12-well plate and cultured in keratinocyte medium at 37° C. in a humidified atmosphere containing 5% CO2 (v/v). HOK-16B cells were plated at a density of 5 × 10^5 cells/well in a 12-well plate and cultured in keratinocyte growth medium supplemented with 0.1 ng/ml epidermal growth factor, 5 µg/ml insulin, 30 µg/mlgentamicin, and 50 µg/mlamphoterecin at 37° C. in a humidified atmosphere containing 5% CO2 (v/v). The Het-1A cells were attached to plates pre-coated with LHC-9 medium supplemented with 0.01 mg/ml fibronectin, 0.03 mg/ml bovine collagen type I and 0.01 mg/ml bovine serum albumin for 1 hour, at a density of 5 × 10^5 cells/well in a 12-well plate and cultured in LHC-9 medium at 37° C. in a humidified atmosphere containing 5% CO2 (v/v). Unless otherwise indicated, cells were exposed to STE at 24 hours after plating.
Cells were treated with TROLOX (6-hydroxy-2,5,7,8-tetramethylchroman-2-carboxylic acid, a water-soluble derivative of vitamin E) at 20 µmol/L, L-ascorbic acid (50 µmol/L), or deferoxamine (50 µmol/L) 30 min prior to STE addition. Treatment was from a 10 mM stock solution of each agent, and the maximal concentration of vehicle [dimethyl sulfoxide (DMSO)] in culture medium was 0.01% (v/v). When possible, agents were diluted in appropriate cell culture medium (TROLOX, L-ascorbic acid, deferoxamine). Exposure to STE is expressed in terms of the amount of reference MST used to produce the total volume of STE [i.e., 100 mg/ml (w/v)]. The indicated concentrations of STE (1-100 mg/ml) exposure were chosen for these studies because they are within the reference range of previously cited works involving smokeless tobacco exposure (Bagchi et al., “Smokeless tobacco, oxidative stress, apoptosis, and antioxidants in human oral keratinocytes.: Free Radic. Biol. Med. 26, 992-1000 (1999); Mangipudy et al., “Role of nitric oxide in the induction of apoptosis by smokeless tobacco extract.” Mol Cell Biochem. 200, 51-57 (1999); and Petro, “Modulation of IL-12 p35 and p40 promoter activity by smokeless tobacco extract is associated with an effect upon activation of NF-kappaB but not IRF transcription factors.” Int. Immunopharmacol.
Morphologic assessment of viable cells and apoptotic and necrotic cell death was performed as follows. Cells were harvested 3 hours after STE exposure, unless otherwise noted, by treatment with trypsin-EDTA for approximately 5 minutes at 37° C. As some apoptotic cells detached from the culture substratum into the medium, these cells were also collected by centrifugation of the medium at 125 g for 5 minutes. […] Nuclear and total cellular morphology were evaluated. […]

Series [3] relates to HOK-16B cells. Briefly: Intracellular ROS generation (DCFH-DA fluorescence) after STE exposure. In kind it is cell-based, human. The conditions noted are these: TROLOX 20 µmol/L, L-ascorbic acid 50 µmol/L or deferoxamine 50 µmol/L, 30 min prior to STE addition; FIG. 1C. On the procedure:
as §1, with “used. […]” for “used.”
The intracellular generation of reactive oxygen species (ROS) was measured by using membrane permeable oxidation-sensitive fluorescent dye DCFH-DA. […] Fluorescence measurements were obtained 0 to 3 hours after STE addition, at the indicated concentrations, with a plate reader. Thirty minutes before the measurement of ROS in the plate reader, cells were incubated with DCFH-DA (25 µmol/L) or DMSO vehicle. The medium was then rapidly removed, the cells were washed in ice-cold phosphate-buffered saline and replaced with medium lacking dye, and the plate was placed into the plate reader. Data at each time point are presented corrected for basal fluorescence of vehicle-treated cells at the same time point. […]

With `O=C(O)CN(CCN(CC(=O)O)CC(=O)O)CC(=O)O` [EDTA, ethylenediamine tetraacetic acid], the “cell death associated with MST-extract exposure during cell wounding” value in the series on cells was “reduced cell death”. In series [1], the “chelation of free calcium of MST-extract” value is listed as “nearly all”. Moreover, the “capsule production of Klebsiella pneumoniae” value with Klebsiella pneumoniae is recorded as “reduced capsule production”.

As for `O=C(O)CN(CCOCCOCCN(CC(=O)O)CC(=O)O)CC(=O)O` [EGTA, ethylene glycol tetraacetic acid], the “cell death associated with MST-extract exposure during cell wounding” value in the series with cells is “reduced cell death”. In the series with cells (free calcium reduced to less than 2 mM), the “cell death with chelator-treated high Ca2+ medium in combination with washed MST” value is recorded as “significantly reduced degree of cell death”. Also, the “chelation of free calcium of MST-extract” value in series [1] was “nearly all”. The “free calcium levels in the high Ca2+ medium after chelator addition” value in series [1] (13.5 mM Ca2+ medium) was “less than 2 mM”. Moreover, the “capsule production of Klebsiella pneumoniae” value in the series with Klebsiella pneumoniae was “reduced capsule production”.

On to `[Cl][Fe]([Cl])[Cl]` [FeCl3], for which the “percent necrotic cell death after 3 hours” value with HOK-16B cells [2] (free iron 14 pM in cell culture medium without STE, 0 pM gave 4.9 ± 0.6%) came out at 13.4 ± 1.0%; in the series with HOK-16B cells [2] (free iron 31 pM in cell culture medium without STE), 26.2 ± 3.5%; in the series with HOK-16B cells [2] (free iron 71 pM in cell culture medium without STE) it was 37.9 ± 4.5%.

Take `O=C1O[C@H]([C@@H](O)CO)C(O)=C1O` [L-ascorbic acid]: the “production of ROS induced by STE” value in the series on HOK-16B cells [3] is “completely suppressed”. The “protection from STE-induced cell death” value with HOK-16B cells [2] is on record as “can protect against cell death”.

For `Cc1c(C)c2c(c(C)c1O)CCC(C)(C(=O)O)O2` (stereo not drawn) [TROLOX, 6-hydroxy-2,5,7,8-tetramethylchroman-2-carboxylic acid], in the series on HOK-16B cells [3], the “production of ROS induced by STE” value was “completely suppressed”. In addition, in the series with HOK-16B cells [2], the “protection from STE-induced cell death” value is on record as “can protect against cell death”.

These data come from US11766068B1, “Method of treating smokeless tobacco” (Altria Client Services LLC, priority 2009, dated 2023).
